From patent publication US20220323406A1, “METHODS AND COMPOSITIONS FOR DIFFERENTIATING STEM CELLS” (Massachusetts Institute of Technology, priority 2019, published 2022)
Counter-ions that a name gives are not always drawn.

Tests used:
ENR+CD organoids = experiment: Primary screen: ATP (CellTiter-Glo 3D, CTG) cell number/viability, 2.5-D 384-well ENR+CD organoids; conditions: primary screen; for Z.CTG: standard z score;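 for all read-outs here: compounds given at plating and again on day 3 over a 6-day differentiation from ENR+CV stem-cell-enriched precursors, ATP measured on day 6, plate median as control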
[1] = tested on: ENR+CD organoids (ISC to Paneth cell differentiation); experiment: Primary screen: CCh-stimulated lysozyme secretion LYZ.S, 2.5-D 384-well ENR+CD organoid differentiation; type: cell-based, mouse; conditions: primary screen
Source text: (§1) High-throughput screening.

[2] = tested on: ENR+CD organoids (ISC to Paneth cell differentiation); experiment: Primary screen: basal (non-stimulated) lysozyme secretion LYZ.NS, 2.5-D 384-well ENR+CD organoid differentiation; type: cell-based, mouse; conditions: primary screen; for Z.LYZ.NS: standard z score
Source text: as §1

[3] = 1st dose row of the treatment (0.08 uM by row order; dose not reprinted)
[4] = 2nd dose row of the treatment (0.40 uM by row order; dose not reprinted)
[5] = 3rd dose row of the treatment (2.00 uM by row order; dose not reprinted)
[6] = 4th dose row of the treatment (10.00 uM by row order; dose not reprinted)
[7] = dose 0.08 uM, FC vs plate median
[8] = dose 0.40 uM, FC vs plate median
[9] = dose 2.00 uM, FC vs plate median
[10] = dose 10.00 uM, FC vs plate median

Row | Compound | Dose.FC.CTG (ENR+CD organoids; dose 0.08 uM) [log2 fold change] | Dose.FC.CTG (ENR+CD organoids; dose 0.40 uM) [log2 fold change] | Dose.FC.CTG (ENR+CD organoids; dose 2.00 uM) [log2 fold change] | Dose.FC.CTG (ENR+CD organoids; dose 10.00 uM) [log2 fold change] | Dose.FC.LYZ.S ([1]; dose 0.08 uM) [log2 fold change] | Dose.FC.LYZ.S ([1]; dose 0.40 uM) [log2 fold change] | Dose.FC.LYZ.S ([1]; dose 2.00 uM) [log2 fold change] | Dose.FC.LYZ.S ([1]; dose 10.00 uM) [log2 fold change] | Dose.FC.LYZ.NS ([2]; dose 0.08 uM) [log2 fold change] | Z.LYZ.NS (standard z score) ([2]; dose 0.08 uM) | Dose.FC.LYZ.NS ([2]; dose 0.40 uM) [log2 fold change] | Z.LYZ.NS (standard z score) ([2]; dose 0.40 uM) | Dose.FC.LYZ.NS ([2]; dose 2.00 uM) [log2 fold change] | Z.LYZ.NS (standard z score) ([2]; dose 2.00 uM) | Dose.FC.LYZ.NS ([2]; dose 10.00 uM) [log2 fold change] | Z.LYZ.NS (standard z score) ([2]; dose 10.00 uM) | Z.CTG (standard z score) (ENR+CD organoids; dose 0.08 uM) | Z.CTG (standard z score) (ENR+CD organoids; dose 0.40 uM) | Z.CTG (standard z score) (ENR+CD organoids; dose 2.00 uM) | Z.CTG (standard z score) (ENR+CD organoids; dose 10.00 uM) | further results
1 | CN(C)CCOc1ccc(/C(=C(/CCCl)c2ccccc2)c2ccccc2)cc1 [Toremifene Citrate] | 0.344 | 0.119 | −1.012 | −1.396 | 0.078 | 0.229 | −0.034 | −0.283 | 0.051 | 0.446 | 0.060 | 0.522 | 0.030 | 0.258 | −0.198 | −1.721 |  |  |  |  | 
2 | (−)-MK 801 Maleate | 0.127 | −0.377 | −0.702 | −0.936 | 0.015 | −0.179 | −0.334 | −0.403 | 0.008 | 0.072 | −0.099 | −0.864 | −0.256 | −2.227 | −0.259 | −2.255 | 0.303 | −0.899 | −1.677 | −2.236 | SSMD.CTG.Rep (strictly standardized mean difference) (ENR+CD organoids; [3]): 0.442; SSMD.CTG.Rep (strictly standardized mean difference) (ENR+CD organoids; [4]): −1.342; SSMD.CTG.Rep (strictly standardized mean difference) (ENR+CD organoids; [5]): −1.102; SSMD.CTG.Rep (strictly standardized mean difference) (ENR+CD organoids; [6]): −1.696; SSMD.LYZ.S_Rep (strictly standardized mean difference) [1, 3]: 0.116; Z.LYZ.S (standard z score) [1, 3]: 0.099; SSMD.LYZ.S_Rep (strictly standardized mean difference) [1, 4]: −0.976; Z.LYZ.S (standard z score) [1, 4]: −1.159; SSMD.LYZ.S_Rep (strictly standardized mean difference) [1, 5]: −1.187; Z.LYZ.S (standard z score) [1, 5]: −2.160; SSMD.LYZ.S_Rep (strictly standardized mean difference) [1, 6]: −1.768; Z.LYZ.S (standard z score) [1, 6]: −2.604; SSMD.LYZ.NS_Rep (strictly standardized mean difference) [2, 3]: 0.070; SSMD.LYZ.NS_Rep (strictly standardized mean difference) [2, 4]: −0.550; SSMD.LYZ.NS_Rep (strictly standardized mean difference) [2, 5]: −1.315; SSMD.LYZ.NS_Rep (strictly standardized mean difference) [2, 6]: −1.708
3 | CC(C)c1onc(-c2c(Cl)cccc2Cl)c1COc1ccc(/C=C/c2cccc(C(=O)O)c2)c(Cl)c1 [GW4064] |  |  |  |  |  |  |  |  |  | 1.476 |  | −0.194 |  | 0.196 |  | −0.516 | −0.320 | 0.334 | −0.346 | −0.375 | Dose.FC.CTG (log2 fold change) (ENR+CD organoids; dose 0.08 uM): −0.134; Dose.FC.CTG (log2 fold change) (ENR+CD organoids; dose 0.40 uM): 0.140; Dose.FC.CTG (log2 fold change) (ENR+CD organoids; dose 2.00 uM): −0.145; Dose.FC.CTG (log2 fold change) (ENR+CD organoids; dose 10.00 uM): −0.157; Dose.FC.LYZ.S (log2 fold change) ([1]; dose 0.08 uM): 0.028; Dose.FC.LYZ.S (log2 fold change) ([1]; dose 0.40 uM): 0.097; Dose.FC.LYZ.S (log2 fold change) ([1]; dose 2.00 uM): 0.000; Dose.FC.LYZ.S (log2 fold change) ([1]; dose 10.00 uM): −0.071; Dose.FC.LYZ.NS (log2 fold change) ([2]; dose 0.08 uM): 0.170; Dose.FC.LYZ.NS (log2 fold change) ([2]; dose 0.40 uM): −0.022; Dose.FC.LYZ.NS (log2 fold change) ([2]; dose 2.00 uM): 0.022; Dose.FC.LYZ.NS (log2 fold change) ([2]; dose 10.00 uM): −0.059
4 | Cc1[nH]c2ccccc2c1CCNCc1ccc(/C=C/C(=O)NO)cc1 [Panobinostat (LBH589)] |  |  |  |  |  |  |  |  |  |  |  |  |  |  |  |  |  |  |  |  | Z.CTG (ENR+CD organoids; dose 0.08 uM): 0.706; Z.CTG (ENR+CD organoids; dose 0.40 uM): 0.506; Z.CTG (ENR+CD organoids; dose 2.00 uM): −1.283; Z.CTG (ENR+CD organoids; dose 10.00 uM): −2.395; Dose.FC.CTG (ENR+CD organoids; [7]): 0.295 log2 fold change; Dose.FC.CTG (ENR+CD organoids; [8]): 0.212 log2 fold change; Dose.FC.CTG (ENR+CD organoids; [9]): −0.537 log2 fold change; Dose.FC.CTG (ENR+CD organoids; [10]): −1.003 log2 fold change; Dose.FC.LYZ.S [1, 7]: −0.034 log2 fold change; Dose.FC.LYZ.S [1, 8]: −0.042 log2 fold change; Dose.FC.LYZ.S [1, 9]: −0.285 log2 fold change; Dose.FC.LYZ.S [1, 10]: −0.320 log2 fold change; Z.LYZ.NS ([2]; dose 0.08 uM): 0.014; Z.LYZ.NS ([2]; dose 0.40 uM): −0.232; Z.LYZ.NS ([2]; dose 2.00 uM): −1.329; Z.LYZ.NS ([2]; dose 10.00 uM): −1.891; Dose.FC.LYZ.NS [2, 7]: 0.002 log2 fold change; Dose.FC.LYZ.NS [2, 8]: −0.027 log2 fold change; Dose.FC.LYZ.NS [2, 9]: −0.153 log2 fold change; Dose.FC.LYZ.NS [2, 10]: −0.217 log2 fold change
5 | COc1cc2c(Nc3ccc(NC(=O)c4ccccc4)cc3)ncnc2cc1OCCCN1CCOCC1 [ZM 447439] | 0.512 | 0.304 | 0.231 | −0.240 | 0.171 | 0.108 | 0.074 | −0.132 | 0.103 | 0.896 | 0.107 | 0.932 | 0.052 | 0.456 | −0.080 | −0.695 | 1.222 | 0.725 | 0.552 | −0.574 | 
